ChEMBL document CHEMBL1146187, “Synthesis, molecular modeling studies, and selective inhibitory activity against monoamine oxidase of N,N'-bis[2-oxo-2H-benzopyran]-3-carboxamides” (Bioorg Med Chem Lett, 2006)

How the values were obtained:
[1] = biological target: T1, Amine oxidase [flavin-containing] A (Bos taurus, UniProt P21398); assay: Inhibition of bovine brain mitochondrial MAOA
T1 sequence (P21398 whole entry): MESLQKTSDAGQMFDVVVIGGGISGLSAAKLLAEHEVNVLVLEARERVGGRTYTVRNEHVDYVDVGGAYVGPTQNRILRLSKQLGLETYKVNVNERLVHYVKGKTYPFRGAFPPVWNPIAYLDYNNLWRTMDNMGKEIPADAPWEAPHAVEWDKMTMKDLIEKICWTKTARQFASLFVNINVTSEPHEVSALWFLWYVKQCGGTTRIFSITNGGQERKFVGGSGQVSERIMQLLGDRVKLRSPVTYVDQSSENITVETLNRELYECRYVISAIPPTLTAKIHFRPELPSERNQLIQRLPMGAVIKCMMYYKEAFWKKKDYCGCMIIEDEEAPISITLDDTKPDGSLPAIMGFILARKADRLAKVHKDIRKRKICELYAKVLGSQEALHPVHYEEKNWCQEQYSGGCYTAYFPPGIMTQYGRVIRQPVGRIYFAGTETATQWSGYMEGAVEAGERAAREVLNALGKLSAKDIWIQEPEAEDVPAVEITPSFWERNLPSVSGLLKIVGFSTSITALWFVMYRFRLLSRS

[2] = biological target: T2, Amine oxidase [flavin-containing] B (Bos taurus, UniProt P56560); assay: Inhibition of bovine brain mitochondrial MAOB
T2 sequence (P56560 whole entry): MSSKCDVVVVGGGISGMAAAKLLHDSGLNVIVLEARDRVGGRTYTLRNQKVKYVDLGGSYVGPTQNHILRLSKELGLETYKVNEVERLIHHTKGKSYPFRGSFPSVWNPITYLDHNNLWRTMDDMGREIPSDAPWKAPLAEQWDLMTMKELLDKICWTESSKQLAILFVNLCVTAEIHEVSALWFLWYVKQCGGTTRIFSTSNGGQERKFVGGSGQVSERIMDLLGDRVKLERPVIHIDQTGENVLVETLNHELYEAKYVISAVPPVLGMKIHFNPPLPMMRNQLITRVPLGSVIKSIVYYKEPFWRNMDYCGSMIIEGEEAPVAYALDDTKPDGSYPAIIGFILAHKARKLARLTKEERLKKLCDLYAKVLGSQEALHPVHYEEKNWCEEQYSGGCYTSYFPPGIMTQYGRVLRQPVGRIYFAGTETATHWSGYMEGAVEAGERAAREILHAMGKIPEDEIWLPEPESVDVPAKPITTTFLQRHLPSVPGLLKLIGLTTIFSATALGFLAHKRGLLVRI

O=C(Nc1ccc(NC(=O)c2cc3ccccc3oc2=O)cc1)c1cc2ccccc2oc1=O
Ki [1]: 2400 nM
Ki [2]: 1740 nM

O=C(NCCNC(=O)c1cc2ccccc2oc1=O)c1cc2ccccc2oc1=O
Ki [1]: 33.1 nM
Ki [2]: 6310 nM

O=C(Nc1ccccc1NC(=O)c1cc2ccccc2oc1=O)c1cc2ccccc2oc1=O
Ki [1]: 16.2 nM
Ki [2]: 3020 nM

O=C(NCCCCNC(=O)c1cc2ccccc2oc1=O)c1cc2ccccc2oc1=O
Ki [1]: 1 nM
Ki [2]: 1000 nM

O=C(NCCCCCCNC(=O)c1cc2ccccc2oc1=O)c1cc2ccccc2oc1=O
Ki [1]: 3.98 nM
Ki [2]: 1820 nM

COc1ccc2cc(C(=O)NCCCCNC(=O)c3cc4ccc(OC)cc4oc3=O)c(=O)oc2c1
Ki [1]: 170 nM
Ki [2]: 1410 nM

O=C(N[C@H]1CCCC[C@@H]1NC(=O)c1cc2ccccc2oc1=O)c1cc2ccccc2oc1=O
Ki [1]: 182 nM
Ki [2]: 1410 nM
